Source: patent US6340755B1, “5H-Pyrano[2,3-d: 6,5-d']dipyrimidine derivatives having an antibacterial, antiviral and immuno-modulating activity” (Natural Drug Sciences LLC, priority 2000, dated 2002)

What was measured:
[1] = system: herpes simplex type I (VPG-I/Leningrad/248/88); assay: Activity on herpes simplex virus: cytopathic action of the virus on Vero cells; format: cell-based; conditions: 36 hours; for number of cells in 100 fields (unchanged cells): cell control 12000
Description: The antiviral activity was studied relative to the virus herpes simplex type I (VPG-I/Leningrad/248/88) by a standard method. The virus was grown on a reinoculated Vero cell culture obtained from the cell culture bank of the Institute of Cytology of the Russian Academy of Sciences.
To cells grown on medium RPMI-1640 with 10% calf serum and placed in the wells of a 96-well plate, the virus was added to give a final concentration of 10 particles/ml and the claimed compounds dissolved in DMSO were added to give a final concentrations of 100, 10, and 1 mg/l. We used 5 individual wells for every concentration tested. The plate was incubated for 60 min at 38° C. in a CO2 incubator. After incubation the virus was removed and new medium was added that contained the claimed compounds in the test concentrations.
The results were evaluated according to the existence of a cytopathic action of the virus on the cells after 36 hours of incubation at 38° C. in the CO2 incubator.
The following controls were used in the experiment:
3. Control of antiviral activity of an antiviral preparation—acylcovir.
To access the cytopathic effect of the virus, we counted the number of unchanged cells in 100 fields formed by a specialized grid on the eyepiece of the inversion microscope.

[2] = system: primary culture of human lymphocytes; assay: Interferon-inducing activity in primary culture of human lymphocytes (immunoenzyme IFN determination); format: cell-based; set-up: unit of the concentration uncertain; conditions: 24 hours of incubation
Description: Interferon synthesis induction by the claimed preparations was conducted on a primary culture of human lymphocytes (the cells in the human body are the main producers of interferon). To obtain a culture of the lymphocytes we used fresh blood (12 hours after collection) from healthy […] (not from the second group).
The lymphocyte concentration was determined after staining with methyl blue and the number of cells in the Goryaev chamber was calculated. […] The final concentration of the lymphocytes in the induction mixture was 3·10^6 cells/ml. The following controls were processed in parallel with the test samples:
The control and the experimental samples were incubated for 24 hours at 37° C. Following incubation the samples were centrifuged at 2000 g to settle out the cellular elements and the INF-containing supernatant was taken from the samples and analyzed for INF content. The cell residue was resuspended in the same volume of nutrient medium, stained with a vital dye—trypan blue—and the number of cells in the Goryaev chamber was calculated (as described above) to determine the cytotoxic activity of the preparations.
For the quantitative determination of INF in the control and experimental samples we used the ProCon IF2 Plus immunoenzyme test system sold by TOO Proteinovyi Kontur. To determine the quantity of interferon s in the sample we used a solid-phase immunoenzyme method utilizing horseradish peroxidase as the enzyme indicator. The activity of the bound peroxidase was measured using an automated photometer at a wavelength of 450 nm for the microplanchets with a microprocessor. […] On the basis of the results obtained we plotted a calibration curve that allowed us to obtain data expressed in International Units (IU) from the microprocessor of the automated photometer. The results of the analysis are expressed in IU of activity of INF per ml in the given induction system containing 3·10^6 lymphocytes/ml. Every experimental and control point was studied in 4 parallel runs.
The results obtained were analyzed statistically using the t-test and the confidence interval at p=0.05 was calculated. Analysis of the convergence of the results of the parallel tests were performed.

C. trachomatis D323 = assay: Activity on Chlamydia trachomatis in McCoy and L929 cell cultures; format: cell-based; conditions: 100 mg/l, 48 hours
Description: The antimicrobial activity of the claimed compounds was studied on C. trachomatis […]-a standard strain from the collection of the Department of Microbiology of the Pavlov St.-Petersburg State University. This strain was isolated from a patient with […] urethritis. […] In the work reported here we used McCoy and L929 cell cultures obtained from the Institute of Cytology of the Russian Academy of Sciences. The cells were grown in flasks of neutral glass in RPMI-1640 medium with an addition of 10% fetal calf serum. The experiment was placed in glass (toxicity-free) flat-bottomed flasks and covered with glass. The cells were introduced into the medium in a final concentration of 1·10 cells/ml. […] The sample was centrifuged at 2400 g for 60 min at room temperature and incubated at 37° C. for 2 hours. […] A parallel series of samples was run using medium without the cycloheximide in order to avoid its influence on the test substances. The samples were incubated for 48 hours in a CO2 incubator. […] The results were evaluated from the detection of chlamydia cytoplasmatic inclusion by an immunoenzyme method (MicroTrac Chlamydia trachomatis Direct Specimen Test) and from chlamydia antigens using CylaMonoScreen (Russian-British Joint Venture, 66 Regent's Park Road, London NW 1 7SX).

non-linebred white mice = assay: Acute toxicity (LD50) in mice; format: in vivo; conditions: mice 18-20 g; by mouth or intravenously; observation period 14 days
Description: Acute toxicity was determined on non-linebred white mice weighing 18-20 g. Emulsions of certain of the claimed compounds were prepared in a range of concentrations: 1500, 700, 500, 100, 20 and 5 μg/kg. Five animals were used to study each specific concentration of a compound. The preparation was administered once a day by mouth or intravenously. The observation period was 14 days On days 1, 8 and 15 the animals in every group were weighed. For a control we used animals who received the emulsion without the test compounds.
All animals, both that died in the course of the experiment and those that survived to the end of the experiment, were opened to allow macroscopic examination of internal organs.
In the course of the experiment no loss of weight was observed or any change in behavior or external appearance, nor was there any loss of life. Based on the results of the macroscopic examination of internal organs of the animals in the test and the control groups, no pathological findings were made (Table 7).

[3] = system: herpes simplex type I (VPG-I/Leningrad/248/88); assay: Activity on herpes simplex virus: cytopathic action of the virus on Vero cells; format: cell-based; conditions: 50 mg/l, 36 hours

Oc1nc(S)nc2c1C(c1ccc(Cl)cc1)c1c(O)nc(S)nc1O2 [VIII]
percent protection of the cells against the virus compared to the cell culture control ([1]; 10 mg/l): 20%
number of cells in 100 fields (unchanged cells) ([1]; 10 mg/l): 2400
percent protection of the cells against the virus compared to the cell culture control ([1]; 100 mg/l): 90%
number of cells in 100 fields (unchanged cells) ([1]; 100 mg/l): 10800
Interferon-inducing activity of the drug; content of INF in induction mixture ([2]; 1 (unit uncertain)): 1.5 ± 1.0 IU/3 · 10^4 lymp/ml
Interferon-inducing activity of the drug; content of INF in induction mixture ([2]; 10 (unit uncertain)): 23.2 ± 1.5 IU/3 · 10^4 lymp/ml
Interferon-inducing activity of the drug; content of INF in induction mixture ([2]; 100 (unit uncertain)): 70.5 ± 2.5 IU/3 · 10^4 lymp/ml
percent protection of the cells against infection (C. trachomatis D323): 60%
number of cells in 100 fields (unchanged cells) (C. trachomatis D323; cell control 8000, infected cell control 6400): 7360
LD50 (non-linebred white mice): 1800 mg/kg
percent protection of the cells against the virus compared to the cell culture control [3]: 50%
number of cells in 100 fields (unchanged cells) ([3]; cell control 12000): 6000
